Measurements from publication PMC9230623, “Design, Synthesis, In Vitro Biological Activity Evaluation and Stabilized Nanostructured Lipid Carrier Formulation of Newly Synthesized Schiff Bases-Based TMP Moieties” (Pharmaceuticals, 2022).

How the values were obtained:
[1] = tested on: MDA-MB-231 breast cancer cell line; test: Cytotoxic assay against MDA-MB-231 breast cancer cell line; type: cell-based; details: Homo sapiens, MDA-MB-231; mean of three independent replicates ± SE; read-out: IC50 Value (μM) MDA-MB-231
Description: The newly prepared Schiff bases 2–5g were screened for their in vitro cytotoxic activity against the MDA-MB-231 breast cancer cell line taking CA-4 as a reference drug. […] In addition, further structure extension to give N-aryl hydrazinyl molecules 4a–5g produced compounds with considerable cytotoxic activity, which may give an indication that the aryl ring is important for cytotoxic activity. […]
Cytotoxic activity of the prepared schiff bases against MDA-MB-231 breast cell Line was determined according previously reported methods. (See Supplementary Materials—Appendix SB).

SMILES | IC50 [1] [µM] | melting point [°C]
COc1cc(/C=N/NC(=O)/C(=C/c2cc(OC)c(OC)c(OC)c2)NC(=O)c2cc(OC)c(OC)c(OC)c2)cc(OC)c1 [Compound 4k, N-((Z)-3-((E)-2-(3,5-Dimethoxybenzylidene)hydrazinyl)-3-oxo-1-(3,4,5-trimethoxyphenyl)prop-1-en-2-yl)-3,4,5-trimethoxybenzamide] | 4.8 ± 0.17 | 214 to 216
COc1cc(/C=C(\NC(=O)c2cc(OC)c(OC)c(OC)c2)C(=O)N/N=C/c2ccc(C)cc2)cc(OC)c1OC [Compound 4f, 3,4,5-Trimethoxy-N-((Z)-3-((E)-2-(4-methylbenzylidene)hydrazinyl)-3-oxo-1-(3,4,5-trimethoxyphenyl)prop-1-en-2-yl)benzamide] | 4.52 ± 0.36 | 208 to 210
COc1cc(/C=C(\NC(=O)c2cc(OC)c(OC)c(OC)c2)C(=O)N/N=C/c2ccc(N(C)C)cc2)cc(OC)c1OC [Compound 4i, N-((Z)-3-((E)-2-(4-(Dimethylamino)benzylidene)hydrazinyl)-3-oxo-1-(3,4,5-trimethoxyphenyl)prop-1-en-2-yl)-3,4,5-trimethoxybenzamide] | 3.46 ± 0.51 | 243 to 245
COc1ccc(/C=N/NC(=O)/C(=C/c2cc(OC)c(OC)c(OC)c2)NC(=O)c2cc(OC)c(OC)c(OC)c2)cc1 [Compound 4g, 3,4,5-Trimethoxy-N-((Z)-3-((E)-2-(4-methoxybenzylidene)hydrazinyl)-3-oxo-1-(3,4,5-trimethoxyphenyl)prop-1-en-2-yl)benzamide] | 3.43 ± 0.22 | 217 to 219
COc1cc(/C=C(\NC(=O)c2cc(OC)c(OC)c(OC)c2)C(=O)N/N=C(\C)c2ccc(Cl)cc2)cc(OC)c1OC [Compound 5b, N-((Z)-3-((E)-2-(1-(4-Chlorophenyl)ethylidene)hydrazinyl)-3-oxo-1-(3,4,5-trimethoxyphenyl)prop-1-en-2-yl)-3,4,5-trimethoxybenzamide] | 14 ± 1.19 | 249 to 251
COc1cc(/C=C(\NC(=O)c2cc(OC)c(OC)c(OC)c2)C(=O)N/N=C/c2ccccc2[N+](=O)[O-])cc(OC)c1OC [Compound 4c, 3,4,5-Trimethoxy-N-((Z)-3-((E)-2-(2-nitrobenzylidene)hydrazinyl)-3-oxo-1-(3,4,5-trimethoxyphenyl)prop-1-en-2-yl)benzamide] | 38.8 ± 0.93 | 239 to 241
COc1cc(/C=C(\NC(=O)c2cc(OC)c(OC)c(OC)c2)C(=O)N/N=C/c2ccc(Cl)cc2)cc(OC)c1OC [Compound 4b, N-((Z)-3-((E)-2-(4-Chlorobenzylidene)hydrazinyl)-3-oxo-1-(3,4,5-trimethoxyphenyl)prop-1-en-2-yl)-3,4,5-trimethoxybenzamide] | 16.1 ± 0.83 | 233 to 235
COc1cc(/C=C(\NC(=O)c2cc(OC)c(OC)c(OC)c2)C(=O)N/N=C/c2ccc(F)cc2)cc(OC)c1OC [Compound 4a, N-((Z)-3-((E)-2-(4-Fluorobenzylidene)hydrazinyl)-3-oxo-1-(3,4,5-trimethoxyphenyl)prop-1-en-2-yl)-3,4,5-trimethoxybenzamide] | 23.7 ± 1.13 | 201 to 203
COc1ccc(/C(C)=N/NC(=O)/C(=C/c2cc(OC)c(OC)c(OC)c2)NC(=O)c2cc(OC)c(OC)c(OC)c2)cc1OC [Compound 5f, N-((Z)-3-((E)-2-(1-(3,4-Dimethoxyphenyl)ethylidene)hydrazinyl)-3-oxo-1-(3,4,5-trimethoxyphenyl)prop-1-en-2-yl)-3,4,5-trimethoxybenzamide] | 8.34 ± 1.22 | 234 to 236
COc1cc(/C=C(\NC(=O)c2cc(OC)c(OC)c(OC)c2)C(=O)N/N=C(\C)c2ccc(O)cc2)cc(OC)c1OC [Compound 5d, N-((Z)-3-((E)-2-(1-(4-Hydroxyphenyl)ethylidene)hydrazinyl)-3-oxo-1-(3,4,5-trimethoxyphenyl)prop-1-en-2-yl)-3,4,5-trimethoxybenzamide] | 1.98 ± 0.19 | 258 to 260
COc1cc(/C=N/NC(=O)/C(=C/c2cc(OC)c(OC)c(OC)c2)NC(=O)c2cc(OC)c(OC)c(OC)c2)ccc1O [Compound 4j, N-((Z)-3-((E)-2-(4-Hydroxy-3-methoxybenzylidene)hydrazinyl)-3-oxo-1-(3,4,5-trimethoxyphenyl)prop-1-en-2-yl)-3,4,5-trimethoxybenzamide] | 2.84 ± 0.18 | 226 to 228
COc1ccc(/C(C)=N/NC(=O)/C(=C/c2cc(OC)c(OC)c(OC)c2)NC(=O)c2cc(OC)c(OC)c(OC)c2)cc1 [Compound 5e, 3,4,5-Trimethoxy-N-((Z)-3-((E)-2-(1-(4-methoxyphenyl)ethylidene)hydrazinyl)-3-oxo-1-(3,4,5-trimethoxyphenyl)prop-1-en-2-yl)benzamide] | 9.52 ± 1.18 | 241 to 243
COc1cc(/C=C(\NC(=O)c2cc(OC)c(OC)c(OC)c2)C(=O)N/N=C/c2cc(OC)c(OC)c(OC)c2)cc(OC)c1OC [Compound 4l, 3,4,5-Trimethoxy-N-((Z)-3-oxo-3-((E)-2-(3,4,5-trimethoxybenzylidene)hydrazinyl)-1-(3,4,5-trimethoxyphenyl)prop-1-en-2-yl)benzamide] | 7.3 ± 0.64 | –
COc1cc(/C=C(\NC(=O)c2cc(OC)c(OC)c(OC)c2)C(=O)N/N=C/c2ccccc2O)cc(OC)c1OC [Compound 4d, N-((Z)-3-((E)-2-(2-Hydroxybenzylidene)hydrazinyl)-3-oxo-1-(3,4,5-trimethoxyphenyl)prop-1-en-2-yl)-3,4,5-trimethoxybenzamide] | 5.98 ± 0.28 | 220 to 222
COc1cc(/C=C(\NC(=O)c2cc(OC)c(OC)c(OC)c2)C(=O)N/N=C(\C)c2ccccc2)cc(OC)c1OC [Compound 5a, 3,4,5-Trimethoxy-N-((Z)-3-oxo-3-((E)-2-(1-phenylethylidene)hydrazinyl)-1-(3,4,5-trimethoxyphenyl)prop-1-en-2-yl)benzamide] | 20.2 ± 0.89 | 260 to 262
C/C=N/NC(=O)/C(=C/c1cc(OC)c(OC)c(OC)c1)NC(=O)c1cc(OC)c(OC)c(OC)c1 [Compound 2, N-((Z)-3-((E)-2-Ethylidenehydrazinyl)-3-oxo-1-(3,4,5-trimethoxyphenyl)prop-1-en-2-yl)-3,4,5-trimethoxybenzamide] | 31.6 ± 1.07 | 224 to 226
COc1cc(/C=C(\NC(=O)c2cc(OC)c(OC)c(OC)c2)C(=O)N/N=C(\C)c2cc(OC)c(OC)c(OC)c2)cc(OC)c1OC [Compound 5g, 3,4,5-Trimethoxy-N-((Z)-3-oxo-1-(3,4,5-trimethoxyphenyl)-3-((E)-2-(1-(3,4,5-trimethoxyphenyl)ethylidene)hydrazinyl)prop-1-en-2-yl)benzamide] | 3.39 ± 0.26 | 211 to 213
COc1cc(/C=C(\NC(=O)c2cc(OC)c(OC)c(OC)c2)C(=O)N/N=C/c2ccco2)cc(OC)c1OC [Compound 3, N-((Z)-3-((E)-2-(Furan-2-ylmethylene)hydrazinyl)-3-oxo-1-(3,4,5-trimethoxyphenyl)prop-1-en-2-yl)-3,4,5-trimethoxybenzamide] | 6.08 ± 0.42 | 212 to 214
COc1cc(/C=C(\NC(=O)c2cc(OC)c(OC)c(OC)c2)C(=O)N/N=C/c2ccc(O)cc2)cc(OC)c1OC [Compound 4e, N-((Z)-3-((E)-2-(4-Hydroxybenzylidene)hydrazinyl)-3-oxo-1-(3,4,5-trimethoxyphenyl)prop-1-en-2-yl)-3,4,5-trimethoxybenzamide] | 7.1 ± 1.02 | –
